Consider 52 compounds from PubChem BioAssay AID1996.

Converted amounts (≈) assume the structure as drawn. Bounds are passed on as bounds.

The conditions of the data set: buffer; pH 7.4; 200.0 µM.
As a reminder, the solubility (kinetic) is solubility judged after dilution from a stock solution rather than from solid. `COc1ccc(O)c(/C=C(\C#N)C(=O)Nc2ccccn2)c1` came in with a solubility (kinetic) of 22.8 µg/mL (≈ 77.2 µM). To `COc1ccc(N2CCOCC2)c(NC(=O)c2ccco2)c1` belongs 38.4 µg/mL (≈ 127 µM); to `COc1cccc(N2CN(CCc3ccccc3)CNC2=S)c1`, 9.8 µg/mL (≈ 29.9 µM). As to `COc1ccccc1CNC(=O)CC1Sc2ccccc2NC1=O` (configuration not stated), the kinetic solubility turned out to be 1.7 µg/mL (≈ 4.96 µM). To `Cc1cc(=O)oc(C)c1C(=O)Nc1cccnc1Cl` belongs greater than 41.8 µg/mL; to `Fc1cccc(C2CCCCN2Cc2nc(C3CC3)no2)c1` (configuration not stated), 17.1 µg/mL (≈ 56.7 µM); to `CCN1CCN(c2ncnc3scc(-c4ccc(C)cc4)c23)CC1`, greater than 50.8 µg/mL. `COc1ccccc1NC(=O)CCN1C(=O)c2ccccc2S1(=O)=O` registered a kinetic solubility greater than 54.1 µg/mL. To `O=C1C(Cl)=C(NCCN2CCOCC2)C(=O)c2ccccc21` belongs greater than 48.1 µg/mL; to `CSCCC(=O)N1CCCC(N(C)CCc2ccccc2)C1` (configuration not stated), 41.7 µg/mL (≈ 130 µM); to `O/N=C(\c1ccccc1)C(O)c1ccccc1` (configuration not stated), greater than 34.1 µg/mL. In the case of `O=C(O)c1[nH]c2ccc([N+](=O)[O-])cc2c1-c1ccccc1` it was greater than 42.3 µg/mL; in that of `CC(C)[C@H](NC(=O)c1cccc(S(=O)(=O)N2CCOCC2)c1)C(=O)NCc1ccc(F)cc1`, 8 µg/mL (≈ 16.8 µM); in that of `Cc1ccccc1C(=O)OCc1cnc(Cl)s1`, 1.4 µg/mL (≈ 5.23 µM). To `Cc1ccc(C)c(OC(=O)c2cccnc2Cl)c1C` belongs 14.8 µg/mL (≈ 53.7 µM).

As for `Cn1c(N)c(C(=O)CSc2nc(N)cc(N)n2)c(=O)n(C)c1=O`, the kinetic solubility is 3 µg/mL (≈ 8.89 µM).

For the compound `S=C1Nc2ccccc2Sc2ccccc21`, the kinetic solubility is 1 µg/mL (≈ 4.11 µM). As to `Cc1ccc(NC(=O)NC2CCCc3ccccc32)cc1` (configuration not stated), the kinetic solubility is less than 0.3 µg/mL. For the compound `Cc1[nH]cnc1C(=O)N/N=C/c1c(Cl)cccc1Cl`, the solubility (kinetic) is greater than 44.6 µg/mL. To `CCCC(=O)OCC(=O)c1[nH]c(C)c(C(C)=O)c1C` belongs greater than 39.8 µg/mL; to `CCCN1C2CCCC1CC(NC(=O)c1cccc([N+](=O)[O-])c1)C2` (configuration not stated), greater than 49.7 µg/mL; to `O=C(Nc1ncccc1O)c1ccc(Oc2ccccc2)cc1`, greater than 45.9 µg/mL.

On to `Cn1c(N)c(C(=O)COC(=O)CNC(=O)c2ccc(Cl)cc2Cl)c(=O)n(C)c1=O`, for which the solubility (kinetic) turned out to be 10.2 µg/mL (≈ 23 µM). The compound `CCc1ccc(C(=O)Nc2cc(C)ccc2F)s1` registered a solubility (kinetic) of 16.6 µg/mL (≈ 63 µM).

On to `Cc1ccc(NC(=O)c2ccc(OCc3c(C)noc3C)cc2)cc1C`, for which the solubility (kinetic) came out at 6.7 µg/mL (≈ 19.1 µM). In the case of `O=S(=O)(NC1C2CC3CC(C2)CC1C3)c1ccc(F)cc1` (configuration not stated) it was 23 µg/mL (≈ 74.3 µM). As for `N#CC1(NC(=O)COC(=O)c2nccnc2N)CCCCC1`, the solubility (kinetic) was greater than 45.5 µg/mL. In the case of `Cc1cccc(OCCCn2c(CO)nc3ccccc32)c1` it was greater than 44.5 µg/mL. Regarding `FC(F)(F)c1cccc(NC(=S)Nc2ccc(Cl)c(Cl)c2)c1`, the solubility (kinetic) came out at 1.5 µg/mL (≈ 4.11 µM). The compound `CSc1nc2ccc(C)cc2c(=O)n1-c1cccnc1` showed a kinetic solubility of 8.1 µg/mL (≈ 28.6 µM). As for `CCC(C)N1C(=O)CCC1C(=O)NCCc1ccc(Cl)cc1` (configuration not stated), the solubility (kinetic) was greater than 48.4 µg/mL. In turn, `CN1C(=O)NC(c2ccc(O)cc2)C2=C1CN(c1ccccc1)C2=O` (configuration not stated) gave a kinetic solubility of 7 µg/mL (≈ 20.9 µM).

The compound `Cc1ccc(NC(=O)c2noc3c2CCC3)cc1C` registered a kinetic solubility of 4.7 µg/mL (≈ 18.3 µM). To `CC1(C)CC(=O)C(C2=NC3(CCCCC3)Cc3ccccc32)=C(O)C1` belongs greater than 50.6 µg/mL.

Turning to `C=CCNc1nc(C)c(CNc2c(C)cc(C)cc2C)nc1C#N`, the kinetic solubility is 0.9 µg/mL (≈ 2.8 µM). To `COc1ccc(NC(=O)Nc2cccc(C)n2)c(OC)c1` belongs less than 0.2 µg/mL; to `COc1ccc(C(=O)NN2CCOCC2)cc1`, greater than 35.4 µg/mL.

`CS(=O)(=O)N(CCc1ccccc1)CC(=O)N1CCCC1` returned a kinetic solubility greater than 46.6 µg/mL. `CC1CCc2sc(C(=O)NC(C)C3CCCO3)cc2C1` (configuration not stated) registered a kinetic solubility greater than 44 µg/mL. Turning to `COc1cc(NC(C)=O)ccc1NC(=O)c1cc2ccccc2o1`, the kinetic solubility was less than 0.3 µg/mL.

In turn, `COc1cc(CC(=O)NCC2CCCCC2)cc(OC)c1OC` displayed a solubility (kinetic) of 43.9 µg/mL (≈ 137 µM). In the case of `Cc1ccc(NC(=O)NCc2nc3ccccc3n2C)cc1` it was 34.8 µg/mL (≈ 118 µM). In the case of `Cc1ccc(SCCNC(=O)c2ccc([N+](=O)[O-])c(C)c2)cc1` it was 9.5 µg/mL (≈ 28.8 µM); in that of `C=CCNC(=O)COC(=O)CCC(=O)c1cccs1`, greater than 42.2 µg/mL. To `NS(=O)(=O)c1cccc(NC(=O)c2cccc(S(=O)(=O)N3CCCCCC3)c2)c1` belongs 49.9 µg/mL (≈ 114 µM). Consider `CCCCOc1ccc(CSC(=N)N)cc1Cl.Cl`, for which the solubility (kinetic) worked out at 40.6 µg/mL. This solubility kinetic and that of the compound before are within 1.5-fold of each other.

As for `Cc1ccc(S(=O)(=O)NC(=O)NC(C)Cc2ccccc2)cc1` (configuration not stated), the kinetic solubility was greater than 49.9 µg/mL. To `O=C(CCNS(=O)(=O)c1ccc(F)c(Cl)c1)NCc1ccccc1F` belongs 27.2 µg/mL (≈ 70 µM); to `Cc1cc(=O)oc2cc(Oc3ncccc3[N+](=O)[O-])ccc12`, 2 µg/mL (≈ 6.71 µM). In turn, `CN1CCN(c2nc(-c3ccccc3)ncc2S(C)(=O)=O)CC1` registered a solubility (kinetic) greater than 49.9 µg/mL. `Cc1cccnc1NC(=O)CCc1c[nH]c2ccccc12` came in with a kinetic solubility greater than 41.9 µg/mL. In the case of `CCN(CC)S(=O)(=O)c1ccc(N2CCOCC2)c(NC(=O)c2[nH]c(C)c(C(C)=O)c2C)c1` it was 3.9 µg/mL (≈ 8.18 µM).
